A short description of data set [1]: Microsomal metabolic stability, human. It counts as in vitro ADME. The conditions noted are these: for half-life: human, liver microsomes.
For data set [2], the system named is T. gondii bradyzoites (EGS strain). The experiment in a line: EGS strain bradyzoite assay (cysts in HFF, dolichos/BAG1 staining). Format: cell-based, Toxoplasma gondii. The conditions noted are these: for IC50: EGS strain. How it is done:
(§1) HFF cells were grown in IMDM (1×, [+] glutamine, [+] 25 mM HEPES, [+] Phenol red, 10% FBS, [Gibco, Denmark]) on removable, sterile glass disks in the bottom of a clear, flat-bottomed 24-well plate. Cultures were infected with 3×10^4 parasites (EGS strain) per well, in 0.5 mL media and plate was returned to incubator at 37° C. overnight. The following day, the media was removed and clear IMDM and compounds were added to making various concentrations of the drug, to a total volume of 0.5 mL. Two wells were filled with media only, as a control. Plates were returned to the 37° C. incubator for 72 hours.
Efficacy was determined following fixation. Staining was used to determine the numbers of cysts in cultures without and with treatment with the test compounds. Cells were fixed using 4% paraformaldehyde and stained with Fluorescein-labeled Dolichos Biflorus Agglutinin, DAPI, and anti-BAG1, and anti-SAG1. Disks were removed and mounted onto glass slides and visualized using microscopy (Nikon Tl7). Slides were also scanned using a CRi Pannoramic Scan Whole Slide Scanner and viewed using Panoramic Viewer Software.
as §1, with “[gibco,” for “[Gibco,”, “2” for “Two”, “72 hours, and checked once every 24” for “72”, “hours. If tachyzoites were visible in the control before 72 hours, the cells were fixed and stained.” for “hours.”
Cells were fixed using 4% paraformaldehyde and stained with Fluorescein-labeled Dolichos Biflorus Agglutinin, DAPI, and BAG1. Disks were removed and mounted onto glass slides and visualized using microscopy (Nikon Tl7). Slides were scanned using a CRi Pannoramic Scan Whole Slide Scanner and viewed using Panoramic Viewer Software. Effects of the compounds were quantified by counting cysts in the controls and treated cells. Cysts and persisting organisms were counted in a representative field of view and then multiplied by a factor determined by the total area of the disk in order to estimate the number of cysts and organisms in each condition.
HFF cells were grown in IMDM (1×, [+] glutamine, [+] 25 mM HEPES, [+] Phenol red, 10% FBS, [gibco, Denmark]) on removable, sterile glass disks in the bottom of a clear, flat-bottomed 24-well plate. Cultures were infected with 3×10^4 parasites (EGS strain) per well, in 0.5 mL media and plate was returned to incubator at 37° C. overnight. The following day, the media was removed and clear IMDM and compounds were added to making various concentrations of the drug, to a total volume of 0.5 mL. 2 wells were filled with media only, as a control. Plates were returned to the 37° C. incubator for 72 hours, and checked once every 24 hours. If tachyzoites were visible in the control before 72 hours, the cells were fixed and stained. Cells were fixed using 4% paraformaldehyde and stained with Fluorescein-labeled Dolichos Biflorus Agglutinin, DAPI, and BAG1. Disks were removed and mounted onto glass slides and visualized using microscopy (Nikon Tl7). Slides were scanned using a CRi Pannoramic Scan Whole Slide Scanner and viewed using Panoramic Viewer Software. Effects of the compounds were quantified by counting cysts in the controls and treated cells. Cysts and persisting organisms were counted in a representative field of view and then multiplied by a factor determined by the total area of the disk in order to estimate the number of cysts and organisms in each condition. Data was collected using Gen5 software. IC50 was calculated by graphical analysis in Excel.

Data set [3] can be described thus: Aqueous kinetic solubility pH 7.4. The following applies: for solubility kinetic: PBS pH 7.4. Format: physicochemical.
A short description of data set [4]: Microsomal metabolic stability, mouse. It counts as in vitro ADME. The following applies: for half-life: mouse, liver microsomes.
For data set [5], the system named is P. falciparum strains D6, TM91-C235, W2, C2B. The experiment in a line: Malaria SYBR Green I-Based Fluorescence (MSF) Assay. The following applies: Plasmodium falciparum. It counts as cell-based, Plasmodium falciparum. In short, it runs like this:
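SYBR Green I fluorescence, proportional to parasite DNA, served as the proliferation read-out in a plate-based sensitivity assay. It was run on D6 (drug-sensitive), TM91-C235 (multi-drug resistant), W2 (chloroquine-resistant) and C2B (resistant to several drugs, including atovaquone).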

Setting [6] is: PBS, pH 7.4, aqueous buffer, kinetic from dmso stock.
[7] abbreviates: D6 strain, read-out: Pf D6 IC50.

In brackets after ≈: the same amount, converted by molar mass. Read-outs that look alike come from different tables or passages of the source.

With `Cc1[nH]c2c(c(=O)c1-c1ccc(Oc3ccc(OC(F)(F)F)cc3)cc1)CCCC2` [JAG21, 2-methyl-3-(4-(4-(trifluoromethoxy)phenoxy)phenyl)-5,6,7,8-tetrahydroquinolin-4(1H)-one], the “Human liver microsomes T1/2” value in data set [1] is reported as “∞”. Besides, the “remaining after 45 mins in human liver microsomes” value in data set [1] (45 mins) is > 99%. The “reduction in the number of true cysts and small organisms” value in data set [2] (1 μM and 10 μM, EGS) is recorded as “statistically significant reduction”. Besides, the IC90 in data set [2] (Toxoplasma gondii, read-out: IC 90 against bradyzoites) was determined as 500 nM. The Pseudocysts turned out to be 29 ± 6 in data set [2] (part a, 1 μM); 25.5 ± 5.1 in data set [2] (part a, 10 μM); 2955 in data set [2] (part b, 1 μM); 2638 in data set [2] (part b, 10 μM). Besides, the Small organisms stood at 90.5 ± 33.5 in data set [2] (part a, 1 μM); 73.25 ± 30.9 in data set [2] (part a, 10 μM); 9734 in data set [2] (part b, 1 μM); 7309 in data set [2] (part b, 10 μM). The “True Cysts” value was 0.5 ± 0.6 in data set [2] (part a, 1 μM); 0.25 ± 0.5 in data set [2] (part a, 10 μM); 54 in data set [2] (part b, 1 μM); 22 in data set [2] (part b, 10 μM). This molecule had a kinetic solubility in data set [3] (setting [6]) of 7 µM (≈ 2.91 µg/mL). Moreover, in data set [4], the “Mouse microsomal stability T1/2” value amounted to 1.68 h. Also, the IC50 is 14.3 nM in data set [5] (setting [7]) and 40 to 65 nM in data set [5] (including all drug resistant strains, read-out: inhibitor of Plasmodium falciparum).
For the molecule `Cc1[nH]c2c(c(=O)c1-c1ccc(Oc3ccccc3)cc1)CCCC2` [MJM170], in data set [1], the “Human microsomal stability T1/2” value came out at 2.438 h. Further, the half-life was determined as 2.44 h in data set [1] (read-out: Human liver microsomes T1/2), 2.43 h in data set [1] (read-out: Human microsomal stability T1/2), 0.349 h in data set [4] (read-out: Mouse liver microsomes T1/2) and 0.333 h in data set [4] (read-out: Mouse microsomal stability T1/2). The “reduction of EGS bradyzoites in cysts in vitro” value in data set [2] is “markedly reduces EGS bradyzoites in cysts”. Further, the IC50 in data set [2] (Toxoplasma gondii, read-out: Brady IC50) was 1000 to 10000 nM; in data set [2] (Toxoplasma gondii, read-out: T. gondii Bradyzoite IC50) it was 4000 nM; in data set [5] (C2B strain (multi-drug resistant, atovaquone resistant), read-out: P. falciparum IC50) it was 10 nM; in data set [5] (C2B strain, read-out: SYBR Green C2B IC50), 10 nM; in data set [5] (D6 strain (drug sensitive), read-out: P. falciparum IC50), 10 nM; in data set [5] (setting [7]), 10 nM. The IC50 was 10 nM in data set [5] (D6 strain, read-out: SYBR Green D6 IC50); 30 nM in data set [5] (TM91C235 strain (multi-drug resistant), read-out: P. falciparum IC50); 30 nM in data set [5] (TM91C235 strain, read-out: SYBR Green C235 IC50); 30 nM in data set [5] (W2 strain (chloroquine resistant), read-out: P. falciparum IC50); 30 nM in data set [5] (W2 strain, read-out: SYBR Green W2 IC50); < 30 nM in data set [5] (wild type and multi-drug resistant, all strains, read-out: IC50 against P. falciparum). In addition, the results for the solubility (kinetic) in data set [3] and in data set [3] (setting [6]) were 1.97 µM (≈ 0.653 µg/mL) and 2 µM (≈ 0.663 µg/mL), respectively. In data set [3] (aqueous buffer, kinetic from dmso stock, 100 mM Phosphate Buffer (pH 7.4)), this molecule gave a solubility of 1.97 µM (≈ 0.653 µg/mL). Moreover, the “improved aqueous kinetic solubility (pH 7.4) over ELQ 271” value in data set [3] (relative to ELQ 271) is recorded as 10 fold. Further, the “Mouse microsomal stability T1/2” value in data set [4] came out at 0.35 h.

Values taken from patent publication US11414385B2, “Compounds and methods for treating, detecting, and identifying compounds to treat apicomplexan parasitic diseases” (The University of Chicago, priority 2015, dated 2022).
